Test system: human-derived colon carcinoma HCT-116 xenograft
Assay: Therapeutic effect against HCT-116 xenograft in nude mice
Type: in vivo, Balb/c nude mice
Details: QOD × 14 d
Description: This experiment is to investigate the in vivo inhibitory effect of II1E-01.HCl on growth of human-derived hepatic carcinoma HepG2 cell, human-derived breast carcinoma MDA-MB-231 cell, human-derived lung carcinoma H460 cell, human-derived colon carcinoma HCT-116 cell, human-derived […] MV-4-11 cell xenografts in nude mice.
Formulation of solvent control (5% anhydrous ethanol & 5% aqueous glucose solution): 2.5 mL anhydrous ethanol was added into a 50 mL tube, followed by addition of 47.5 mL 5% glucose solution for injection followed by shaking, and stored at room temperature before use.
Formulation of the preparations of the compounds to be tested: formulations with concentrations of 0.4 mg/mL and 0.6 mg/mL were prepared respectively. An appropriate amount of II1E-01.HCl was weighted and put into a 50 mL tube, followed by addition of corresponding volume of solvent to get the desired concentration and mixed using a vortex mixer. After the solid was dissolved completely, the solution was subpackaged into 4 mL vials and stored at refrigerated condition (2-8° C.) until use.
Experimental animals: Balb/c nude mice (male, six weeks old).
HCT116 cells were in vitro cultured to be proliferated. The cells in the log phase of growth were collected, resuspended in RPMI-1640 serum-free medium, and then implanted subcutaneously into the axilla of the right forelimb of nude mice. After 14 days, the tumor size reached about 470 mm^3. The mice bearing the tumor were grouped by randomized block method according to the tumor size into 3 groups, including the group of solvent control and groups of 4 mg/kg and 6 mg/kg dosages of the testing compound II1E-01.HCl. In the solvent control group, glucose injection was administered intravenously at tail once every other day (QOD). The testing compound II1E-01.HCl was administered intravenously (iv) at tail once every other day (QOD). The animals were given the drugs for 14 days, during which, the growth of tumor and the body weight of the mice were observed.
After continuously administering for 14 days (the 28th day after the implantation), the tumor weight and inhibition rate were calculated, and results are listed in Table 8.

C[C@]12CC[C@H](OC(=O)NC3CCNCC3)C[C@H]1CC[C@@H]1[C@@H]2CC[C@]2(C)[C@@H](c3ccc(=O)oc3)CC[C@]12O.Cl [II1E-01•HCl]
Tumor Weight(g) Mean ± SE (4 mg/kg iv): 0.8017 ± 0.0480 g | Inhibition Rate (%) (4 mg/kg iv, 4 mg/kg): 36.82% | Inhibition Rate (%) (4 mg/kg iv, listed as II1E-01.HCl, 4 mg/kg): 36.82% | Tumor Weight(g) Mean ± SE (6 mg/kg iv): 0.4147 ± 0.0212 g | Inhibition Rate (%) (6 mg/kg iv, 6 mg/kg): 67.33% | Inhibition Rate (%) (6 mg/kg iv, listed as II1E-01.HCl, 6 mg/kg): 67.33%
